Patent US20110209253A1, “Method for Improving Plant Health” (BASF SE, priority 2008, published 2011)
Where two headings read alike, the source gives them in different places.

Tests used:
[1] = test system: Wheat plants (Triticum aestivum cv. Monopol); experiment: Growth-promoting effect on wheat plants after foliar treatment (Example 2); assay type: in vivo; settings: for Number of tillers: per plant; for activity at 7.81 g/ha / activity at 15.63 g/ha / activity at 31.25 g/ha: Triticum aestivum, 504 h
Method: Wheat plants (Triticum aestivum cv. Monopol) were grown in soil with ten plants per pot (13 cm diameter) under greenhouse conditions. Plants at the 2nd leaf stage were sprayed with an aqueous solution of formulated Dimethyl-carbamic acid 2-methylcarbamoyl-2-[(1-methyl-3-trifluoromethyl-1H-pyrazole-4-carbonyl)-amino]-1-(tetrahydro-pyran-4-yl)-ethyl ester (compound 1). The compound was applied at three different dose rates, i.e. 31.25/15.63/7.81 g ai/ha and the spray volume was 750 l/ha. Ten replicate pots with ten plants each were used per treatment. After three weeks (21 days) plants were harvested and growth parameters were determined. The recorded parameters were fresh weight, dry weigh, leaf area (all per pot) and number of tillers (per plant). Mean values of results, standard deviation (SD) and percentage to control were calculated.

[2] = test system: Wheat plants (Triticum aestivum cv. Cubus); experiment: Growth-promoting effect on wheat plants after root treatment (hydroponic culture); assay type: in vivo; design: Shoot-FW ± SE / Root-FW ± SE: unit not given here; settings: for Root-FW ± SE / Shoot-FW ± SE / activity at 1 µM / activity at 3 µM: seven days after treatment; for activity at 1 µM / activity at 3 µM: Triticum aestivum, 168 h
Method: Wheat plants (Triticum aestivum cv. Cubus) at the 2nd leaf stage were cultivated in 320 mL glass vessels with 300 mL half-strength Linsmaier-Skoog medium (Physiologia Plantarum 18: 100-127, 1964). The solution was aerated throughout experiment. The vessels were incubated randomized in a climate chamber under 16:8 h light:dark cycles (photon flux density 400 μmol m-2 s-1, 400-750 nm, Osram powerstar HQI-R 250W/NDL and Osram krypton 100W lamps) at 22° C. (light):20° C. (dark) and 75% relative humidity (3 plants per vessel, 9 replicate vessels). After 2 days of adaptation, plants were treated with Dimethyl-carbamic acid 2-methylcarbamoyl-2-[(1-methyl-3-trifluoromethyl-1H-pyrazole-4-carbonyl)-amino]-1-(tetrahydro-pyran-4-yl)-ethyl ester (compound 1) which was added to the medium in dimethyl sulfoxide (DMSO) solution (0.1% final concentration of DMSO). Controls received corresponding quantity of DMSO alone, with no adverse effect on the growth of the plants. Seven days after treatment, fresh weights (FW) of shoot and root, as the growth parameters, were measured and mean values±standard error (SE) of 27 plant parts was calculated.

[3] = 7.81 g/ha foliar spray, 21 days, per pot
[4] = 15.63 g/ha foliar spray, 21 days, per pot
[5] = 31.25 g/ha foliar spray, 21 days, per pot

## CNC(=O)C(NC(=O)c1cn(C)nc1C(F)(F)F)C(OC(=O)N(C)C)C1CCOCC1 (stereo not shown) [Compound 1, Dimethyl-carbamic acid 2-methylcarbamoyl-2-[(1-methyl-3-trifluoromethyl-1H-pyrazole-4-carbonyl)-amino]-1-(tetrahydro-pyran-4-yl)-ethyl ester]
[1]; 7.81 g/ha foliar spray, 21 days
  Number of tillers: 2.9
[1]; [3]
  Leaf area: 1121.1 cm^2
  Shoot DW: 4.4 g
  Shoot FW: 43.9 g
[1]; 15.63 g/ha foliar spray, 21 days
  Number of tillers: 2.8
[1]; [4]
  Leaf area: 1046.3 cm^2
  Shoot DW: 4.0 g
  Shoot FW: 40.5 g
[1]; 31.25 g/ha foliar spray, 21 days
  Number of tillers: 2.8
[1]; [5]
  Leaf area: 1060.3 cm^2
  Shoot DW: 4.2 g
  Shoot FW: 42.8 g
[1]; 7.81 g/ha foliar spray, 21 days, read-out: Leaf area % of control
  activity at 7.81 g/ha: 126%
[1]; 7.81 g/ha foliar spray, 21 days, read-out: Number of tillers % of control
  activity at 7.81 g/ha: 118%
[1]; 7.81 g/ha foliar spray, 21 days, read-out: Shoot DW % of control
  activity at 7.81 g/ha: 127%
[1]; 7.81 g/ha foliar spray, 21 days, read-out: Shoot FW % of control
  activity at 7.81 g/ha: 126%
[1]; 15.63 g/ha foliar spray, 21 days, read-out: Leaf area % of control
  activity at 15.63 g/ha: 118%
[1]; 15.63 g/ha foliar spray, 21 days, read-out: Number of tillers % of control
  activity at 15.63 g/ha: 114%
[1]; 15.63 g/ha foliar spray, 21 days, read-out: Shoot DW % of control
  activity at 15.63 g/ha: 116%
[1]; 15.63 g/ha foliar spray, 21 days, read-out: Shoot FW % of control
  activity at 15.63 g/ha: 116%
[1]; 31.25 g/ha foliar spray, 21 days, read-out: Leaf area % of control
  activity at 31.25 g/ha: 120%
[1]; 31.25 g/ha foliar spray, 21 days, read-out: Number of tillers % of control
  activity at 31.25 g/ha: 114%
[1]; 31.25 g/ha foliar spray, 21 days, read-out: Shoot DW % of control
  activity at 31.25 g/ha: 122%
[1]; 31.25 g/ha foliar spray, 21 days, read-out: Shoot FW % of control
  activity at 31.25 g/ha: 123%
[1]; by lowering the dose rate
  growth promoting (yield increasing) effect, dose response: more pronounced
[1]; foliar treatment
  shoot tillering: increased
[1]; foliar treatment, 7.81-31.25 g/ha
  increase in fresh and dry weight related to control: up to 26%
[1]; foliar treatment, lowest dose rate gave the highest effect
  Leaf area: increased
[2]; Experiment 1, 1 μM in medium
  Root-FW ± SE: 0.403 ± 0.015
  Shoot-FW ± SE: 0.747 ± 0.017
[2]; Experiment 1, 3 μM in medium
  Root-FW ± SE: 0.382 ± 0.013
  Shoot-FW ± SE: 0.733 ± 0.019
[2]; Experiment 2, 1 μM in medium
  Root-FW ± SE: 0.342 ± 0.010
  Shoot-FW ± SE: 0.736 ± 0.024
[2]; Experiment 2, 3 μM in medium
  Root-FW ± SE: 0.335 ± 0.012
  Shoot-FW ± SE: 0.738 ± 0.021
[2]; Experiment 1, 1 μM in medium, read-out: Root-FW % of control
  activity at 1 µM: 113%
[2]; Experiment 1, 1 μM in medium, read-out: Shoot-FW % of control
  activity at 1 µM: 115%
[2]; Experiment 1, 3 μM in medium, read-out: Root-FW % of control
  activity at 3 µM: 107%
[2]; Experiment 1, 3 μM in medium, read-out: Shoot-FW % of control
  activity at 3 µM: 112%
[2]; Experiment 2, 1 μM in medium, read-out: Root-FW % of control
  activity at 1 µM: 105%
[2]; Experiment 2, 1 μM in medium, read-out: Shoot-FW % of control
  activity at 1 µM: 115%
[2]; Experiment 2, 3 μM in medium, read-out: Root-FW % of control
  activity at 3 µM: 103%
[2]; Experiment 2, 3 μM in medium, read-out: Shoot-FW % of control
  activity at 3 µM: 115%
[2]; root treatment
  shoot tillering and adventitious root growth: promoted
[2]; root treatment, 1 and 3 μM, two experiments
  stimulation of shoot and root growth relative to controls: up to 15%
